According to the supplement of paper PMC10307832:

How the values were obtained:
Test in all cases: relative viability (nuclei count vs DMSO), 5 days (fraction); higher = more cells survive
[1] = compound: CC1=CC(=NN1)NC2=CC(=NC(=N2)/C=C/C3=CC=CC=C3)N4CCN(CC4)C + Cc1cc(Nc2cc(N3CCN(C)CC3)nc(Sc3ccc(NC(=O)C4CC4)cc3)n2)n[nH]1 [Tozasertib] (partner 0.1 µM)
Summary of the method: (§1)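 Relative viability was taken as the ratio of nuclei in treated wells to nuclei in vehicle wells. Lung cancer cell lines in 1536-well plates received compounds by pin tool one day after seeding, either one drug alone or a fixed anchor-drug dose plus five library-drug doses (not always all listed) in √10 steps. Nuclei were counted on 4× images after 5 days of treatment, and values are medians of duplicate plates.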

Obatoclax + Dasatinib = compound: COC1=CC(c2cc3ccccc3[nH]2)=N/C1=C\c1[nH]c(C)cc1C [Obatoclax] + Cc1nc(Nc2ncc(C(=O)Nc3c(C)cccc3Cl)s2)cc(N2CCN(CCO)CC2)n1 [Dasatinib] (partner 0.075 µM)
Summary of the method: as §1

Bortezomib + Pemetrexed = compound: CC(C)C[C@H](NC(=O)[C@H](Cc1ccccc1)NC(=O)c1cnccn1)B(O)O [Bortezomib] + Nc1nc2[nH]cc(CCc3ccc(C(=O)N[C@@H](CCC(=O)O)C(=O)O)cc3)c2c(=O)[nH]1 [Pemetrexed] (partner 0.2 µM)
Summary of the method: as §1

[2] = compound: CC1=CC(=NN1)NC2=CC(=NC(=N2)/C=C/C3=CC=CC=C3)N4CCN(CC4)C + Nc1nc2[nH]cc(CCc3ccc(C(=O)N[C@@H](CCC(=O)O)C(=O)O)cc3)c2c(=O)[nH]1 [Pemetrexed] (partner 0.2 µM)
Summary of the method: as §1

NCI-H1755
relative viability ([1]; first compound 0.08 µM): 0.539 | relative viability ([1]; first compound 0.253 µM): 0.563 | relative viability ([1]; first compound 0.8 µM): 0.524 | relative viability ([1]; first compound 2.53 µM): 0.333 | relative viability ([1]; first compound 8 µM): 0.211 | relative viability (Obatoclax + Dasatinib; first compound 0.01 µM): 0.425 | relative viability (Obatoclax + Dasatinib; first compound 0.03162 µM): 0.402 | relative viability (Obatoclax + Dasatinib; first compound 0.1 µM): 0.335 | relative viability (Obatoclax + Dasatinib; first compound 0.3162 µM): 0.44 | relative viability (Obatoclax + Dasatinib; first compound 1 µM): 0.397 | relative viability (Bortezomib + Pemetrexed; first compound 0.0002 µM): 0.404 | relative viability (Bortezomib + Pemetrexed; first compound 0.000632 µM): 0.495 | relative viability (Bortezomib + Pemetrexed; first compound 0.002 µM): 0.472 | relative viability (Bortezomib + Pemetrexed; first compound 0.006325 µM): 0.286 | relative viability (Bortezomib + Pemetrexed; first compound 0.02 µM): 0.239 | relative viability ([2]; first compound 0.08 µM): 0.428 | relative viability ([2]; first compound 0.253 µM): 0.381 | relative viability ([2]; first compound 0.8 µM): 0.462 | relative viability ([2]; first compound 2.53 µM): 0.32 | relative viability ([2]; first compound 8 µM): 0.294

NCI-H1793
relative viability ([1]; first compound 0.08 µM): 0.298 | relative viability ([1]; first compound 0.253 µM): 0.537 | relative viability ([1]; first compound 0.8 µM): 0.207 | relative viability ([1]; first compound 2.53 µM): 0.123 | relative viability ([1]; first compound 8 µM): 0.111 | relative viability (Obatoclax + Dasatinib; first compound 0.01 µM): 0.404 | relative viability (Obatoclax + Dasatinib; first compound 0.03162 µM): 0.405 | relative viability (Obatoclax + Dasatinib; first compound 0.1 µM): 0.321 | relative viability (Obatoclax + Dasatinib; first compound 0.3162 µM): 0.395 | relative viability (Obatoclax + Dasatinib; first compound 1 µM): 0.418 | relative viability (Bortezomib + Pemetrexed; first compound 0.0002 µM): 0.762 | relative viability (Bortezomib + Pemetrexed; first compound 0.002 µM): 0.867 | relative viability (Bortezomib + Pemetrexed; first compound 0.006325 µM): 0.616 | relative viability (Bortezomib + Pemetrexed; first compound 0.02 µM): 0.211 | relative viability ([2]; first compound 0.08 µM): 0.698 | relative viability ([2]; first compound 0.253 µM): 1.03 | relative viability ([2]; first compound 0.8 µM): 0.644 | relative viability ([2]; first compound 2.53 µM): 0.137 | relative viability ([2]; first compound 8 µM): 0.0795

NCI-H1915
relative viability ([1]; first compound 0.08 µM): 0.462 | relative viability ([1]; first compound 0.253 µM): 0.34 | relative viability ([1]; first compound 0.8 µM): 0.334 | relative viability ([1]; first compound 2.53 µM): 0.16 | relative viability ([1]; first compound 8 µM): 0.135 | relative viability (Obatoclax + Dasatinib; first compound 0.01 µM): 0.314 | relative viability (Obatoclax + Dasatinib; first compound 0.03162 µM): 0.271 | relative viability (Obatoclax + Dasatinib; first compound 0.1 µM): 0.318 | relative viability (Obatoclax + Dasatinib; first compound 0.3162 µM): 0.329 | relative viability (Obatoclax + Dasatinib; first compound 1 µM): 0.282 | relative viability (Bortezomib + Pemetrexed; first compound 0.0002 µM): 0.496 | relative viability (Bortezomib + Pemetrexed; first compound 0.000632 µM): 0.475 | relative viability (Bortezomib + Pemetrexed; first compound 0.002 µM): 0.494 | relative viability (Bortezomib + Pemetrexed; first compound 0.006325 µM): 0.396 | relative viability (Bortezomib + Pemetrexed; first compound 0.02 µM): 0.0489 | relative viability ([2]; first compound 0.08 µM): 0.523 | relative viability ([2]; first compound 0.253 µM): 0.553 | relative viability ([2]; first compound 0.8 µM): 0.452 | relative viability ([2]; first compound 2.53 µM): 0.37 | relative viability ([2]; first compound 8 µM): 0.137

NCI-H1944
relative viability ([1]; first compound 0.08 µM): 0.266 | relative viability ([1]; first compound 0.253 µM): 0.284 | relative viability ([1]; first compound 0.8 µM): 0.223 | relative viability ([1]; first compound 2.53 µM): 0.184 | relative viability ([1]; first compound 8 µM): 0.136 | relative viability (Obatoclax + Dasatinib; first compound 0.01 µM): 0.206 | relative viability (Obatoclax + Dasatinib; first compound 0.03162 µM): 0.198 | relative viability (Obatoclax + Dasatinib; first compound 0.1 µM): 0.198 | relative viability (Obatoclax + Dasatinib; first compound 0.3162 µM): 0.242 | relative viability (Obatoclax + Dasatinib; first compound 1 µM): 0.223 | relative viability (Bortezomib + Pemetrexed; first compound 0.0002 µM): 0.564 | relative viability (Bortezomib + Pemetrexed; first compound 0.000632 µM): 0.546 | relative viability (Bortezomib + Pemetrexed; first compound 0.002 µM): 0.636 | relative viability (Bortezomib + Pemetrexed; first compound 0.006325 µM): 0.47 | relative viability (Bortezomib + Pemetrexed; first compound 0.02 µM): 0.151 | relative viability ([2]; first compound 0.08 µM): 0.566 | relative viability ([2]; first compound 0.253 µM): 0.652 | relative viability ([2]; first compound 0.8 µM): 0.611 | relative viability ([2]; first compound 2.53 µM): 0.365 | relative viability ([2]; first compound 8 µM): 0.312

NCI-H1975
relative viability ([1]; first compound 0.08 µM): 0.62 | relative viability ([1]; first compound 0.253 µM): 0.729 | relative viability ([1]; first compound 0.8 µM): 0.416 | relative viability ([1]; first compound 2.53 µM): 0.127 | relative viability ([1]; first compound 8 µM): 0.0865 | relative viability (Obatoclax + Dasatinib; first compound 0.01 µM): 0.439 | relative viability (Obatoclax + Dasatinib; first compound 0.03162 µM): 0.389 | relative viability (Obatoclax + Dasatinib; first compound 0.3162 µM): 0.351 | relative viability (Obatoclax + Dasatinib; first compound 1 µM): 0.153 | relative viability (Bortezomib + Pemetrexed; first compound 0.0002 µM): 0.274 | relative viability (Bortezomib + Pemetrexed; first compound 0.000632 µM): 0.253 | relative viability (Bortezomib + Pemetrexed; first compound 0.002 µM): 0.158 | relative viability (Bortezomib + Pemetrexed; first compound 0.006325 µM): 0.136 | relative viability (Bortezomib + Pemetrexed; first compound 0.02 µM): 0.122 | relative viability ([2]; first compound 0.08 µM): 0.281 | relative viability ([2]; first compound 0.253 µM): 0.281 | relative viability ([2]; first compound 0.8 µM): 0.286 | relative viability ([2]; first compound 2.53 µM): 0.187 | relative viability ([2]; first compound 8 µM): 0.137

NCI-H1993
relative viability ([1]; first compound 0.08 µM): 0.553 | relative viability ([1]; first compound 0.253 µM): 0.524 | relative viability ([1]; first compound 0.8 µM): 0.577 | relative viability ([1]; first compound 2.53 µM): 0.485 | relative viability ([1]; first compound 8 µM): 0.52 | relative viability (Obatoclax + Dasatinib; first compound 0.01 µM): 0.616 | relative viability (Obatoclax + Dasatinib; first compound 0.03162 µM): 0.549 | relative viability (Obatoclax + Dasatinib; first compound 0.1 µM): 0.748 | relative viability (Obatoclax + Dasatinib; first compound 0.3162 µM): 0.499 | relative viability (Obatoclax + Dasatinib; first compound 1 µM): 0.395 | relative viability (Bortezomib + Pemetrexed; first compound 0.0002 µM): 0.701 | relative viability (Bortezomib + Pemetrexed; first compound 0.000632 µM): 0.585 | relative viability (Bortezomib + Pemetrexed; first compound 0.002 µM): 0.627 | relative viability (Bortezomib + Pemetrexed; first compound 0.006325 µM): 0.395 | relative viability (Bortezomib + Pemetrexed; first compound 0.02 µM): 0.391 | relative viability ([2]; first compound 0.08 µM): 0.58 | relative viability ([2]; first compound 0.253 µM): 0.65 | relative viability ([2]; first compound 0.8 µM): 0.592 | relative viability ([2]; first compound 2.53 µM): 0.516 | relative viability ([2]; first compound 8 µM): 0.351

NCI-H2009
relative viability ([1]; first compound 0.08 µM): 0.656 | relative viability ([1]; first compound 0.253 µM): 0.73 | relative viability ([1]; first compound 0.8 µM): 0.663 | relative viability ([1]; first compound 2.53 µM): 0.368 | relative viability ([1]; first compound 8 µM): 0.217 | relative viability (Obatoclax + Dasatinib; first compound 0.01 µM): 0.297 | relative viability (Obatoclax + Dasatinib; first compound 0.03162 µM): 0.367 | relative viability (Obatoclax + Dasatinib; first compound 0.1 µM): 0.252 | relative viability (Obatoclax + Dasatinib; first compound 0.3162 µM): 0.208 | relative viability (Obatoclax + Dasatinib; first compound 1 µM): 0.197 | relative viability (Bortezomib + Pemetrexed; first compound 0.0002 µM): 1.05 | relative viability (Bortezomib + Pemetrexed; first compound 0.000632 µM): 1.05 | relative viability (Bortezomib + Pemetrexed; first compound 0.002 µM): 1.02 | relative viability (Bortezomib + Pemetrexed; first compound 0.006325 µM): 0.553 | relative viability (Bortezomib + Pemetrexed; first compound 0.02 µM): 0.0697 | relative viability ([2]; first compound 0.08 µM): 1.09 | relative viability ([2]; first compound 0.253 µM): 1.03 | relative viability ([2]; first compound 0.8 µM): 0.982 | relative viability ([2]; first compound 2.53 µM): 0.909 | relative viability ([2]; first compound 8 µM): 0.313

NCI-H2023
relative viability ([1]; first compound 0.08 µM): 0.266 | relative viability ([1]; first compound 0.253 µM): 0.305 | relative viability ([1]; first compound 0.8 µM): 0.235 | relative viability ([1]; first compound 2.53 µM): 0.0983 | relative viability ([1]; first compound 8 µM): 0.0659 | relative viability (Obatoclax + Dasatinib; first compound 0.01 µM): 0.518 | relative viability (Obatoclax + Dasatinib; first compound 0.03162 µM): 0.548 | relative viability (Obatoclax + Dasatinib; first compound 0.1 µM): 0.53 | relative viability (Obatoclax + Dasatinib; first compound 0.3162 µM): 0.412 | relative viability (Obatoclax + Dasatinib; first compound 1 µM): 0.194 | relative viability (Bortezomib + Pemetrexed; first compound 0.0002 µM): 0.25 | relative viability (Bortezomib + Pemetrexed; first compound 0.000632 µM): 0.247 | relative viability (Bortezomib + Pemetrexed; first compound 0.002 µM): 0.246 | relative viability (Bortezomib + Pemetrexed; first compound 0.006325 µM): 0.0916 | relative viability (Bortezomib + Pemetrexed; first compound 0.02 µM): 0.0786 | relative viability ([2]; first compound 0.08 µM): 0.214 | relative viability ([2]; first compound 0.253 µM): 0.283 | relative viability ([2]; first compound 0.8 µM): 0.198 | relative viability ([2]; first compound 2.53 µM): 0.117 | relative viability ([2]; first compound 8 µM): 0.0581
